Test results from patent US20250115578A1, “AROMATIC FUSED RING NAV1.8 INHIBITOR, AND USE THEREOF” (CHENGDU KANGHONG PHARMACEUTICAL CO., LTD., priority 2022, published 2025).
In brackets after ≈: the same amount, converted by molar mass. Like-named read-outs stand apart in the source and are kept apart here. Values belong to the compound of their own block, whether it stands above or below them.

What was measured:
[1] = system: postoperative toothache; settings: phase II; cited from earlier work
[2] = system: CFA and SNL models; settings: cited from earlier work
[3] = biological target: hNav1.8 (Homo sapiens (Human), UniProt Q9Y5Y9); experiment: Manual patch clamp, Method 1 (CHO cell line stably expressing hNav1.8); assay type: cell-based; settings: 100 nM; Method 1, CHO-hNav1.8; read-out: Inhibition rate of hNav1.8
Excerpt: The patch clamp technique is known as the “gold standard” for studying ion channels, and it uses glass microelectrodes to seal the cell membrane to measure the currents of various membrane channel. […] Patch clamp technology can evaluate the inhibition strength of different compounds on different states of Navs by measuring the changes of membrane channel currents after different compounds bind to different states of Navs.
The representative compounds of the present invention used stable CHO or HEK293 cell lines transfected with specific ion channels to measure the effect of the compounds on Nav1.8 currents by manual patch clamp test, to evaluate their inhibition strength.
The assay protocol of manual patch clamp is as follows:
CHO cell lines with stable expression of hNav1.8 were cultured in F12 medium containing 10% fetal bovine serum at a constant temperature of 37° C., and the carbon dioxide concentration was maintained at 5%. The old culture medium was removed and washed once with PBS, then 1 mL 0.25%-Trypsin-EDTA solution was added and incubated at 37° C. for 1 min. When the cells were detached from the bottom of the dish, 5 mL of the complete medium preheated at 37° C. was added, and the aggregated cells were separated by gently blowing with a straw. The cell suspension was transferred into a sterile centrifuge tube and centrifuged at 1000 rpm for 5 min to collect cells. The cells were then inoculated into a cell culture dish with a diameter of 6 cm (2.5×10^5 cells/petri dish, 5 mL medium) for expansion or maintenance.
In order to maintain the electrophysiological activity of the cells, the cell density must be less than 80%.
The cells were separated with 0.25%-Trypsin-EDTA before the assay, and 5×10^3 cells were seeded on a cover slip and cultured in a 24-well plate (final volume: 500 μL) for 18 h. Then the assay was conducted.
The compounds prepared in the examples of the present invention were dissolved in dimethyl sulfoxide (DMSO) and prepared into DMSO stock solution with a concentration of 10 mM for assay. And it was diluted to various concentrations with extracellular solution (140 mM NaCl, 3.5 mM KCl, 1 mM MgCl2, 2 mM CaCl2), 10 mM Glucose, 10 mM HEPES, 1.25 mM NaH2PO4, pH=7.4 regulated by NaOH), and the final concentration of DMSO in each compound sample was 0.10% or less.
A capillary glass pipette (BF150-86-10, Sutter Instruments) was pulled into a recording electrode with a micropipette puller (P97, Sutter Instruments). The micromanipulator (MP285, Sutter Instruments) was manipulated under an inverted microscope (IX71, Olympus) to make the recording electrode contact the cell and negative pressure suction was applied to achieve a GQ seal. Then, rapid capacitance compensation was performed, and negative pressure was continued, cell membrane was broken by suction, and whole cell recording mode was formed. Then the slow capacitance was compensated and the membrane capacitance and series resistance were recorded without leakage compensation. When the whole cell recording current was stabilized, dosing was initiated, and the next concentration was detected after acting 5 minutes of each drug concentration. Multiple cells were independently repeated during the recording period. All electrophysiological assays were performed at room temperature. Specifically, 6 concentrations (measuring IC50) or 2 concentrations (preliminary screening) were set for each compound, and the percentage of inhibition of sodium channels was determined by calculating the relative percentage of peak current generated before and after each concentration compound treated cells, and the IC50 value or percentage of inhibition at a specific concentration was calculated using IGOR pro software.

[4] = Assay of kinetic solubility; assay type: physicochemical; settings: aqueous buffer, kinetic from dmso stock, pH 3.5 phosphate buffer, 25° C.
Procedure: The stock solutions of the test compound and the standard progesterone were prepared in DMSO at the concentration of 10 mM.
30 μL of stock solutions at 10 mM of the test compounds and standard substance were placed in order into their proper 96-well plate. 970 μL phosphate buffer at the specified pH was added to the proper vial of the sample plate. The assay was performed in duplicate. A stirring stick was added to each vial and the teflon/silicone plug was capped. The sample tray was then placed in the Eppendorf Thermomixer Comfort and shaken at 1100 RPM at 25° C. for 2 hours. After 2 hours, plugs were removed, a big magnet was used to remove the stirring sticks, and samples were transferred from the sample plate to the filter plate. Vacuum pump was used to create negative pressure and filtered the samples. Transferred 5 μL of the filtrate to the new sample plate, then added 5 μL DMSO and 490 μL water/acetonitrile (V/V=1/1) to dilute the solvent. The dilution factor may be adjusted according to the solubility values of the substances to be tested or the strength of its LC-MS signal response.
From the 10 mM DMSO stock solution, 15 μL of that was transferred into the empty plate and 485 μL DMSO was added to prepare a 300 μM standard solution. From the 300 μM standard solution plate, 5 μL of that was transferred to another empty plate and 5 μL phosphate buffer at specified pH and 490 μL water/acetonitrile (V/V=1/1) dilution solvent were added to the standard solution to get a final concentration of 3 μM. The concentration of the standard solution may be adjusted according to the strength of its LC-MS signal response.
The sample plate was placed into the sample tray of the automatic sampler and the samples were evaluated by LC-MS/MS analysis.
All calculations were carried out by Microsoft Excel.
The sample filtrate was analyzed and quantified against a standard of known concentrations using LC-MS spectral peaks to identify and quantify. The solubility values of the control drug and the compounds to be tested were calculated as the following formula: • [Sample]: concentration of the sample • AREASample: peak area of the sample • INJ VOLStd: standard sample injection volume • DFSample: sample dilution factor • [STD]: standard substance concentration • AREAStd: peak area of standard substance • INJ VOLSample: sample injection volume

[5] = system: postoperative pain model in rats; experiment: Efficacy test in postoperative pain model in rats (mechanical allodynia, PWT); assay type: in vivo, Sprague-Dawley male rats; settings: single oral 30 mg/kg, at 2 h and 4 h after administration
Procedure: Sprague-Dawley male rats, purchased from Zhejiang Vital River Laboratory Animal Technology Co., LTD
Compounds of the example 10, 14, 16, 31 of the invention were weighted and prepared into solutions of 3 mg/mL using 5% DMSO (Anhui Senrise Technologies Co., Ltd)+30% Solutol HS15 (Beijing Ouhe Technology Co., LTD.)+65% water for injection, and administered at a volume of 10 mL/kg by gavage. The dosage was 30 mg/kg.
Animals were anesthetized with Zoletil 50+ Xylazine Hydrochloride (20 mg/kg+8 mg/kg, intraperitoneally injected). The surgical area on the plantar skin of the left hind paw was disinfected three times with iodophor and 70% ethanol, and the surgery was started after the skin was dry.
A longitudinal incision about 1 cm was made towards the toes starting from 0.5 cm away from the heel of the left hind paw. After the skin was incised, the flexor digitorum brevis was raised and longitudinal blunt injury was caused. After hemostasis by pressing, the wound was sutured. After surgery, animals were placed on an electric warm pad and 5 mL of physiological saline was injected subcutaneously to prevent dehydration. 24 h after modeling, all animals (including the normal control group) were tested for base mechanical allodynia (PWT). The modeling animals without mechanical hypersensitivity (PWT greater than 5 g) were excluded and […] were selected and randomly divided into 5 groups, with 9 animals in each group except 5 in the normal group (negative control group).
The animals were weighed and administered orally at a volume of 10 mL/kg. Except normal control animals, other animals were given a single dose of compounds, and mechanical allodynia was performed by test fibers on all groups of animals at 1 h, 2 h and 4 h after dosing. The rats were placed individually in a plexiglass box with a grid at the bottom to ensure that the paws of the rats could be tested. The rats would acclimate for 15 minutes before the test. After the acclimation was completed, the test fibers were used to test on the plantar center of the rat's left hind paw. Pressed the test fiber vertically against the skin and applied force to bend the fiber for 6 to 8 seconds, with 5 second intervals between each test. The rapid withdrawal of the animal's paws during the test was recorded as a pain response. The animal's paw withdrawal when the fibers left the animal's skin was also recorded as a pain response. If the animal moves or walks around, it's not recorded as a pain response, and the test should be repeated.
Mechanical hyperalgesia was expressed as the paw withdrawal threshold (PWT) in the rat behavioral test, which was calculated according to the following formula:
50% response threshold (g)=(10^(Xf+kδ)/10,000 • Xf=final test fiber value used in the test • k=table value (Chaplan et al. 1994, page 62) • δ=mean deviation
Data were collected with excel software and analyzed with Prism 7.0 (Graph pad software, Inc.) software by two-way ANOVA followed by Dunnett multiple comparison test.

[6] = system: animal models of pain; settings: carrageenan, CFA, CCI, SNL and acute mechanical pain models; cited from earlier work
[7] = system: STZ-induced diabetic neuropathic heat pain model; settings: cited from earlier work

hNav1.8, sequence (Q9Y5Y9 whole entry): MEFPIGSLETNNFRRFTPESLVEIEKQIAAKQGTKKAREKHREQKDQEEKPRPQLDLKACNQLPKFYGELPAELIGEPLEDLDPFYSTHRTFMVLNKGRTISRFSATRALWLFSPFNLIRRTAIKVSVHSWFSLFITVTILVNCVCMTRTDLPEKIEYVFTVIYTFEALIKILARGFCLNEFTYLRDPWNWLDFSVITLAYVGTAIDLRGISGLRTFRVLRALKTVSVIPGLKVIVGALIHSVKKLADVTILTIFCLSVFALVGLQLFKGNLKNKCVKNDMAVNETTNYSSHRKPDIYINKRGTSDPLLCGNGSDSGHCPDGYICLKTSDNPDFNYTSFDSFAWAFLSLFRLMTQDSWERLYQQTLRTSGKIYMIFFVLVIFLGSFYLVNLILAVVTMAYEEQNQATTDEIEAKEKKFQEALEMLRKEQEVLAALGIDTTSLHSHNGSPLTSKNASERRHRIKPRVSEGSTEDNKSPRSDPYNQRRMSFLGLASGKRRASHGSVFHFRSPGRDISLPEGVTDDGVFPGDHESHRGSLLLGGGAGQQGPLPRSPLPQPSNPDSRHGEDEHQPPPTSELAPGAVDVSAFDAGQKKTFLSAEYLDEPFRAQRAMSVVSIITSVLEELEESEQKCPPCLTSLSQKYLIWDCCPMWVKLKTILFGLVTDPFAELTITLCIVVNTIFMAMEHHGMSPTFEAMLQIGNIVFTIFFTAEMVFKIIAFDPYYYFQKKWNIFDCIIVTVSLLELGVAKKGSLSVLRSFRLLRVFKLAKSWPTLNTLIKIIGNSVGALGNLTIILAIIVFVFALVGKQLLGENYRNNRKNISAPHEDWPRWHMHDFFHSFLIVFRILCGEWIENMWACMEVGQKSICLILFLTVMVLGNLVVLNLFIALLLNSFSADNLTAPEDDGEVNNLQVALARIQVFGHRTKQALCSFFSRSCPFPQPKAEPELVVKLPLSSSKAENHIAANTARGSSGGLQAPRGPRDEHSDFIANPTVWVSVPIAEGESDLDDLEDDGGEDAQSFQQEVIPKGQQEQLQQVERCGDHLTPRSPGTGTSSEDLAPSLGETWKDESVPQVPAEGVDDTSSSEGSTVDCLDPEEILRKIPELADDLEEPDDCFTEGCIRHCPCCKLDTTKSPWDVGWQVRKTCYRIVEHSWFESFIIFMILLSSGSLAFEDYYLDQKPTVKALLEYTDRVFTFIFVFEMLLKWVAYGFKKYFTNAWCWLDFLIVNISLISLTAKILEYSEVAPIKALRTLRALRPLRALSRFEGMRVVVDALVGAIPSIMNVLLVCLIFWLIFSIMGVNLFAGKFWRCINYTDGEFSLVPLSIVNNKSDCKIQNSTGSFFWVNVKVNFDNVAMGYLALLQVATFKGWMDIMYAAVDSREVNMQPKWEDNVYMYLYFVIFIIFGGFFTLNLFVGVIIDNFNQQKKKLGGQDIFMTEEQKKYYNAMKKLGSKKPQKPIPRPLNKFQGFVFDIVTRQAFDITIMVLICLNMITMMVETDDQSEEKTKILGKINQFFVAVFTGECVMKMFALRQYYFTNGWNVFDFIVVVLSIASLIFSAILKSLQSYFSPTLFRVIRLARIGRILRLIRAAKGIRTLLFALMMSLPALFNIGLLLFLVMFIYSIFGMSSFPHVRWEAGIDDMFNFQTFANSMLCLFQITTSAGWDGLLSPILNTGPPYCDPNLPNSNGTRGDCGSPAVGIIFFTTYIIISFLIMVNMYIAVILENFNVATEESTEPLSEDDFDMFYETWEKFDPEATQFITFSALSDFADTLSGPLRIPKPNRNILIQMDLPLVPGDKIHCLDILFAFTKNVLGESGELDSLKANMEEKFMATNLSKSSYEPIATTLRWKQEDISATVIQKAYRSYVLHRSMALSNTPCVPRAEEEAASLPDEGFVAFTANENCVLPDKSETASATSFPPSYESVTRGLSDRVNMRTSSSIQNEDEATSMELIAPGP

SMILES: COc1ccc(Cl)c(-c2ccc(NC(=O)c3ccnn3C)nc2N)c1 [PF-04531083]
- Activity versus placebo [1]: did not show better activity than placebo

SMILES: CNC(=O)c1ccc(-c2cc(Cl)cc(Cl)c2Cl)c(N)n1 [PF-01247324]
- Pain relief [2]: significant pain relief

- inhibition at 0.1 µM [3]: 97.1%
- solubility kinetic at 2 h [4]: 0.69 µM (≈ 0.354 µg/mL)
SMILES: NS(=O)(=O)c1cc(NC(=O)c2cc(Cl)c(C(F)(F)F)cc2N2CCCC(F)(F)CC2)ccn1 [Example 31, 5-chloro-2-(4,4-difluoroazepan-1-yl)-N-(2-sulfamoylpyridin-4-yl)-4-trifluoromethylbenzamide, reference compound]
- Inhibition of mechanical hyperalgesia induced by postoperative pain model [5]: inhibited mechanical hyperalgesia

SMILES: COc1cc(NC(=O)c2ccc(-c3ccc(Cl)cc3)o2)cc(OC)c1 [Example A-803467]
- Pain relief effect compared with the model group [6]: exceeding 50%
- Duration of efficacy versus lidocaine ([7]; local injection of plantar): lasted longer
- Efficacy versus lidocaine ([7]; local injection of plantar): equivalent
- Efficacy versus lidocaine ([7]; systemic administration): superior to lidocaine
